# US20250051391A1, “PEPTIDE INHIBITORS AND METHODS FOR INHIBITING PROTEIN AGGREGATION IN NEURONS AND NEURODEGENERATIVE DISEASES” (THE GOVERNING COUNCIL OF THE UNIVERSITY OF TORONTO, priority 2021, published 2025)
# Ends that are not written are not given here.
# Tested on: rat primary cortical neurons
# Assay: Rat primary cortical neurons transduced with AAVs, immunofluorescence and immunoblot
# Assay type: cell-based
# Method: Infected neurons were scraped from 6-well dishes and lysed with RIPA buffer containing protease inhibitor cocktail (Roche). The Triton X-100 soluble fraction was then separated from the insoluble pellet by centrifugation. Protein concentration was quantified using the DC protein assay (BioRad). For each condition, 20 μg of protein lysate was run on 4-15% acrylamide gels (BioRad) and subsequently transferred onto a polyvinylidene difluoride (PVDF) membrane. Blots were blocked with 5% skim milk in TBS+0.01% Tween-20 (TBS-T) for 1 h prior to incubation with primary antibody overnight at 4° C. Blots were subsequently washed 3 times in TBS-T for 10 minutes per wash, incubated in species specific secondary antibody for 1 h at 21° C., washed again, and then developed using ECL immunoblotting substrate (Pierce) and visualized on HyBlot CL autoradiographic film (Denville Scientific).
# Pregnant rats (E17) of the Sprague-Dawley strain were purchased from Envigo. Embryos were surgically removed from the mothers and cortices dissected in Hanks Balanced salt solution (Gibco). The meninges were removed, and cells were dissociated using a papain dissociation system (Worthington) before being resuspended in Neurobasal medium A supplemented with antibiotic-antimycotic solution (Gibco), L-glutamine substitute (GlutaMAX™; Gibco) and factor B27 (Gibco). Cells were plated on poly-D-lysine coated glass coverslips at a density of 5×10^5 cells/well, or on poly-D-lysine coated 6-well cell culture plates at a density of 2×10^6 cells/well, and incubated at 37° C. in 5% CO2 with half media changes every 3 days. Cells were transduced with AAVs 2 days post-isolation at a multiplicity of infection (MOI) of 3000. Media containing AAV vectors were removed after 72 h and cells were fixed with 4% PFA for immunofluorescence staining or lysed for immunoblotting at 8 days post-isolation.
# After fixation, cells were permeabilized with 0.2% Triton X-100 for 15 min, washed 3 times with PBS and then incubated with blocking solution (1% BSA, 22.52 mg/mL glycine, 0.1% Tween-20 in PBS) for 1 h. Primary antibodies were diluted in blocking solution and incubated overnight at 4° C. Following three washes with PBS, cells were next incubated with fluorescent secondary antibodies diluted in blocking solution for 1 h at room temperature. Following another 3 PBS washes, nuclei were counterstained with DAPI (ThermoFisher) and then coverslips were mounted on slides using fluorescence mounting medium (DAKO) and sealed using clear nail varnish.
# Confocal images of primary cortical neurons, dopaminergic neurons, and LAMP1 staining within the SN were processed using Imaris software (Oxford instruments). Z stacks were projected to give a 3D reconstruction of the field of view and mean pixel intensity per GFP^+ cell (or RFP^+ cell for V1S/SV2 experiments) was calculated for a-syn or LAMP1 signal using the software's surfaces module. For LAMP1 staining within the SN, the number of LAMP1^+ puncta within GFP^+ cells was calculated for each field of view; 3 fields of view were imaged/animal.
sequence,measurement,setting,value
DEEIERQLKALG [PDpep1.3],total a-syn fluorescence,"neurons with V1S and SV2 or V1S alone (WT a-syn), RFP-tagged peptide vs Scramble1.3",significant lowering
same,LAMP1 levels,rat cortical neurons expressing human A53T a-syn,restored LAMP1 levels
same,YFP fluorescence from co-expressed V1S and SV2 (a-syn oligomers),rat primary cortical neurons,reduced YFP fluorescence
same,endogenous a-syn fluorescence intensity,rat primary cortical neurons,reduced fluorescence intensity
same,total A53T a-syn protein levels by immunoblotting of neuronal lysates,rat primary cortical neurons,reduction
same,A53T a-syn fluorescence intensity,"rat primary cortical neurons, AAV A53T a-syn plus GFP-tagged peptide, vs Scramble1.3",significant decrease
same,fluorescence of YFP alone,"rat primary cortical neurons, control",no effect
same,levels of truncated A53T a-syn lacking amino acids 103-140 (HA immunostaining),"rat primary cortical neurons, vs Scramble1.3",did not reduce
